Key:
Test in all cases: relative viability (nuclei count vs DMSO), 5 days (fraction); higher = more cells survive
HARA = tested on: HARA
Summary of the method: (§1)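 Cells from lung cancer lines were seeded into 1536-well plates and, one day later, dosed by pin tool. Treatments were either a single drug or a fixed dose of an anchor drug with five library-drug doses (not always all listed) in √10 steps. After 5 days, nuclei were stained in a one-step fixation (final 0.05% Triton X-100, 1% formaldehyde, 1 ug/ml Hoechst) and counted on 4× images, and relative viability is the treated-to-vehicle nuclei ratio, as the median of duplicate plates.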

H3255 = tested on: H3255
Summary of the method: as §1

LC-2-ad = tested on: LC-2-ad
Summary of the method: as §1

PC-3 [JPC-3] = tested on: PC-3 [JPC-3]
Summary of the method: as §1

NCI-H441 = tested on: NCI-H441
Summary of the method: as §1

NCI-H460 = tested on: NCI-H460
Summary of the method: as §1

HCC-15 = tested on: HCC-15
Summary of the method: as §1

NCI-H1437 = tested on: NCI-H1437
Summary of the method: as §1

SK-LU-1 = tested on: SK-LU-1
Summary of the method: as §1

LCLC-97TM1 = tested on: LCLC-97TM1
Summary of the method: as §1

LU99A = tested on: LU99A
Summary of the method: as §1

NCI-H1915 = tested on: NCI-H1915
Summary of the method: as §1

NCI-H661 = tested on: NCI-H661
Summary of the method: as §1

NCI-H2126 = tested on: NCI-H2126
Summary of the method: as §1

EMC-BAC-2 = tested on: EMC-BAC-2
Summary of the method: as §1

ChaGo-K-1 = tested on: ChaGo-K-1
Summary of the method: as §1

NCI-H1792 = tested on: NCI-H1792
Summary of the method: as §1

NCI-H1793 = tested on: NCI-H1793
Summary of the method: as §1

HCC-827 = tested on: HCC-827
Summary of the method: as §1

NCI-H1944 = tested on: NCI-H1944
Summary of the method: as §1

NCI-H322M = tested on: NCI-H322M
Summary of the method: as §1

NCI-H23 = tested on: NCI-H23
Summary of the method: as §1

EKVX = tested on: EKVX
Summary of the method: as §1

`Cc1cnc(-c2cnc(NCCNc3ccc(C#N)cn3)nc2-c2ccc(Cl)cc2Cl)[nH]1` + Cc1nc(Nc2ncc(C(=O)Nc3c(C)cccc3Cl)s2)cc(N2CCN(CCO)CC2)n1 [Dasatinib] (partner 0.075 µM) was tested, and the relative viability (HARA; first compound 0.08 µM) was 0.223, the relative viability (HARA; first compound 0.253 µM) was 0.259 and the relative viability (HARA; first compound 0.8 µM) was 0.343. The relative viability (HARA; first compound 2.53 µM) was 0.244, the relative viability (H3255; first compound 0.08 µM) was 0.466 and the relative viability (H3255; first compound 0.253 µM) was 0.445. It also gave a relative viability (H3255; first compound 2.53 µM) of 0.388, a relative viability (LC-2-ad; first compound 0.08 µM) of 0.662 and a relative viability (LC-2-ad; first compound 0.253 µM) of 0.486. For the same molecule, the relative viability (LC-2-ad; first compound 2.53 µM) was 0.471, the relative viability (PC-3 [JPC-3]; first compound 0.08 µM) was 0.926 and the relative viability (PC-3 [JPC-3]; first compound 0.253 µM) was 0.88. The relative viability (PC-3 [JPC-3]; first compound 0.8 µM) was 0.929, the relative viability (PC-3 [JPC-3]; first compound 2.53 µM) was 1 and the relative viability (NCI-H441; first compound 0.08 µM) was 0.672. For the same molecule, the relative viability (NCI-H441; first compound 0.253 µM) was 0.578, the relative viability (NCI-H441; first compound 0.8 µM) was 0.385 and the relative viability (NCI-H441; first compound 2.53 µM) was 0.403. It also gave a relative viability (NCI-H460; first compound 0.08 µM) of 0.543, a relative viability (NCI-H460; first compound 0.253 µM) of 0.404 and a relative viability (NCI-H460; first compound 0.8 µM) of 0.557. It also gave a relative viability (NCI-H460; first compound 2.53 µM) of 0.454, a relative viability (HCC-15; first compound 0.08 µM) of 0.687 and a relative viability (HCC-15; first compound 0.253 µM) of 0.509. The relative viability (HCC-15; first compound 0.8 µM) was 0.598, the relative viability (HCC-15; first compound 2.53 µM) was 0.625 and the relative viability (NCI-H1437; first compound 0.08 µM) was 0.425. The relative viability (NCI-H1437; first compound 0.253 µM) was 0.369, the relative viability (NCI-H1437; first compound 0.8 µM) was 0.309 and the relative viability (NCI-H1437; first compound 2.53 µM) was 0.278. The relative viability (SK-LU-1; first compound 0.08 µM) was 0.185, the relative viability (SK-LU-1; first compound 0.253 µM) was 0.185 and the relative viability (SK-LU-1; first compound 0.8 µM) was 0.18. For the same molecule, the relative viability (SK-LU-1; first compound 2.53 µM) was 0.226, the relative viability (LCLC-97TM1; first compound 0.08 µM) was 0.796 and the relative viability (LCLC-97TM1; first compound 0.8 µM) was 0.887. It also gave a relative viability (LCLC-97TM1; first compound 2.53 µM) of 0.741, a relative viability (LU99A; first compound 0.08 µM) of 0.507 and a relative viability (LU99A; first compound 0.253 µM) of 0.487. The relative viability (LU99A; first compound 0.8 µM) was 0.528, the relative viability (LU99A; first compound 2.53 µM) was 0.643 and the relative viability (NCI-H1915; first compound 0.08 µM) was 0.339. For the same molecule, the relative viability (NCI-H1915; first compound 0.253 µM) was 0.294, the relative viability (NCI-H1915; first compound 0.8 µM) was 0.342 and the relative viability (NCI-H1915; first compound 2.53 µM) was 0.311. For the same molecule, the relative viability (NCI-H661; first compound 0.08 µM) was 1.04, the relative viability (NCI-H661; first compound 0.253 µM) was 0.778 and the relative viability (NCI-H661; first compound 0.8 µM) was 0.845. It also gave a relative viability (NCI-H661; first compound 2.53 µM) of 0.794, a relative viability (NCI-H2126; first compound 0.08 µM) of 0.686 and a relative viability (NCI-H2126; first compound 0.253 µM) of 0.54. It also gave a relative viability (NCI-H2126; first compound 0.8 µM) of 0.604, a relative viability (NCI-H2126; first compound 2.53 µM) of 0.529 and a relative viability (EMC-BAC-2; first compound 0.08 µM) of 0.409. It also gave a relative viability (EMC-BAC-2; first compound 0.253 µM) of 0.336, a relative viability (EMC-BAC-2; first compound 0.8 µM) of 0.317 and a relative viability (EMC-BAC-2; first compound 2.53 µM) of 0.332. It also gave a relative viability (ChaGo-K-1; first compound 0.08 µM) of 0.607, a relative viability (ChaGo-K-1; first compound 0.253 µM) of 0.462 and a relative viability (ChaGo-K-1; first compound 0.8 µM) of 0.512. The relative viability (ChaGo-K-1; first compound 2.53 µM) was 0.515, the relative viability (NCI-H1792; first compound 0.08 µM) was 0.998 and the relative viability (NCI-H1792; first compound 0.253 µM) was 0.777. It also gave a relative viability (NCI-H1792; first compound 0.8 µM) of 0.772, a relative viability (NCI-H1792; first compound 2.53 µM) of 0.762 and a relative viability (NCI-H1793; first compound 0.08 µM) of 0.384. For the same molecule, the relative viability (NCI-H1793; first compound 0.253 µM) was 0.365, the relative viability (NCI-H1793; first compound 0.8 µM) was 0.411 and the relative viability (NCI-H1793; first compound 2.53 µM) was 0.468. For the same molecule, the relative viability (HCC-827; first compound 0.08 µM) was 0.371, the relative viability (HCC-827; first compound 0.8 µM) was 0.291 and the relative viability (HCC-827; first compound 2.53 µM) was 0.318. For the same molecule, the relative viability (NCI-H1944; first compound 0.08 µM) was 0.24, the relative viability (NCI-H1944; first compound 0.8 µM) was 0.251 and the relative viability (NCI-H1944; first compound 2.53 µM) was 0.316. The relative viability (NCI-H322M; first compound 0.08 µM) was 0.246, the relative viability (NCI-H322M; first compound 0.253 µM) was 0.281 and the relative viability (NCI-H322M; first compound 0.8 µM) was 0.248. It also gave a relative viability (NCI-H322M; first compound 2.53 µM) of 0.274, a relative viability (NCI-H23; first compound 0.08 µM) of 0.879 and a relative viability (NCI-H23; first compound 0.253 µM) of 0.751. For the same molecule, the relative viability (NCI-H23; first compound 0.8 µM) was 0.871, the relative viability (NCI-H23; first compound 2.53 µM) was 0.713 and the relative viability (EKVX; first compound 0.08 µM) was 0.608. For the same molecule, the relative viability (EKVX; first compound 0.253 µM) was 0.518, the relative viability (EKVX; first compound 0.8 µM) was 0.494 and the relative viability (EKVX; first compound 2.53 µM) was 0.493.

Reference: the supplement of paper PMC10307832
